Source: US6861432B2, “Piperazine derivatives that destabilize androgen receptors” (Schering Aktiengesellschaft, priority 2001, dated 2005)

Columns and labels:
LNCaP prostate cancers = experiment: Model 5: Growth of human prostate cancer xenografts in vivo, LNCaP; settings: hairless mice with testosterone pellets, 2 × daily s.c. 30 mg/kg, FIG. 1
From the text: (§1) In this invention, the action of Example 117 according to the invention: 4-[2,5-dihydro-3-methyl-4-[4-[4-(methylsulfonyl)piperazin-1-yl]butyl]-2,5-dioxo-1H-pyrrol-1-yl]-2-(trifluoromethyl)benzonitrile on the tumor growth in vivo was studied by means of mouse-xenograft modules, in which the compound according to the invention was continuously administered subcutaneously.
(§2) The CWR22 tumor model [M. A. Wainstein, F. He, D. Robinson, H. J. Kung, S. Schwartz, J. M. Giaconia, N. L. Edgehouse, T. P. Pretlow, D. R. Bodner, E. D. Kursh, Cancer Res. 1994, 1; 54(23), 6049-52] is a hormone-dependent human prostate carcinoma model. The tumor model was established and further propagated by “scrial passaging” of prostate cancer tissue, which was removed during an OP in immunodeficient hairless mice. The androgen-dependent LNCaP prostate cancer model was also established from a patient tumor. This tumor model grows both in cell culture and as a xenotransplant on immunodeficient mice (Culig, Hoffman Brit. J. Cancer, 1999, 242-251). For therapy tests, 6-week-old male hairless mice (NMRI mice, M&B, Bornholdtgard, Denmark) were supplemented with testosterone pellets (12.5 mg, 90-day release; IRA, Sarasota, Fla.). Either LNCaP cells (1.5×10^6 cells) or small CWR22 tumor fragments (2×2 mm) were implanted subcutaneously in the left flank of the animals. After the tumors reached a size of 20-25 mm^2, the treatment with the invention substance was begun. [M. A. Wainstein, F. He, D. Robinson, H. J. Kung, S. Schwartz, J. M. Giaconia, N. L. Edgehouse, T. P. Pretlow, D. R. Bodner, E. D. Kursch, Cancer Res. 1994, 1; 54(23), 6049-52].

MaTu cells = experiment: Model 3: Proliferation of non-prostate cells, MaTu; type: cell-based, human; settings: 10 μM, 3-day treatment; percent of cell growth of solvent control
Protocol: (§3) To examine the growth-inhibiting action of test substances in cells that are not of prostatic origin, MaTu cells, MaTu/Adr cells, HaCaT cells and A431 cells were treated with test substances, whereby
(§4) Depending on the cell line, 1000-4000 cells/well were grown in RPMI 1640 medium (A431; MaTu and MaTu/Adr) or DMEM/HAM'SF12 medium (HaCaT) without phenol red with 2 mmol of L-glutamine and 10% CCS, and after a 24-hour incubation, they were treated with various concentrations of test substances diluted in culture medium. After a 3-day treatment period, the number of cells was determined by crystal violet assay, as in Model 2. The solvent control contained 0.1% ethanol.
(§5) The substances were tested at a concentration of 10 μM, and the data correspond to the proportion, in percent, of the cell growth of the solvent control. It turns out that the test substances exerted no inhibitory action on the four different cell lines or, in individual cases, only a slight inhibitory action.

MaTu/Adr cells = experiment: Model 3: Proliferation of non-prostate cells, MaTu/Adr; type: cell-based, human; settings: 10 μM, 3-day treatment, percent of cell growth of solvent control
Protocol: as §3, §4, §5

LNCaP cells = experiment: Model 2: Inhibition of the proliferation of LNCaP cells (crystal violet assay; antagonism with 0.1 nM R1881, agonism without); type: cell-based, human; settings: for IC50: LNCaP proliferation in the presence of 0.1 nM R1881, 7-8 days, read-out: IC50 [10^−7 M]
CWR22 prostate cancers = experiment: Model 5: Growth of human prostate cancer xenografts in vivo, CWR22; settings: hairless mice with testosterone pellets, 2 × daily s.c. 30 mg/kg, FIG. 2
From the text: as §1, §2

A431 cells = experiment: Model 3: Proliferation of non-prostate cells, A431; type: cell-based, human; settings: 10 μM, 3-day treatment, percent of cell growth of solvent control
Protocol: as §3, §4, §5

HaCaT cells = experiment: Model 3: Proliferation of non-prostate cells, HaCaT; type: cell-based, human; settings: 10 μM, 3-day treatment, percent of cell growth of solvent control
Protocol: as §3, §4, §5

seminal vesicles = experiment: Model 4: Antiandrogenic action on testosterone-stimulated growth of accessory sexual glands of castrated mice; type: in vivo; settings: testosterone propionate 0.03 mg/mouse, test substance 2 × 30 mg/kg s.c., 7 days, CPA 30 mg/kg s.c., bicalutamide from preceding tests
Protocol: The function and the size of accessory sexual glands (prostate and seminal vesicles) depend on androgens. In castrated animals, a growth of these (organs is induced by androgen administration. The simultaneous treatment with antiandrogens inhibits this growth, depending on the dose.
To examine the test substances, the mice were castrated. The treatment with testosterone propionate (0.03 mg/mouse) and the test substances (formulated 2×daily 30 mg/kg s.c. in benzyl benzoate-castor oil (10:90)) was on the same day. The treatment was carried out over 7 days and at the end of the test, the weights of the seminal vesicles and prostates were determined. The inhibition, in percent, of the seminal vesicle growth was calculated relative to the control groups (with and without testosterone). As a reference substance, cyproterone acetate (30 mg/kg s.c.) was used.

androgen receptor = target: T1, androgen receptor (Homo sapiens, UniProt P10275, T878A); experiment: cell-based; settings: LNCaP, 48 h; for remaining activity at 10 µM: read-out: AR Content [%] At 10 μM; for remaining activity at 1 µM: read-out: AR Content [%] At 1 μM
T1 construct: 2*10^6 LNCaP cells in 6 ml of RPMI 1640 without phenol red are grown; endogenous in cells; host or cells: LNCaP (human prostate cell line)
T1 sequence (P10275 1-920 T878A): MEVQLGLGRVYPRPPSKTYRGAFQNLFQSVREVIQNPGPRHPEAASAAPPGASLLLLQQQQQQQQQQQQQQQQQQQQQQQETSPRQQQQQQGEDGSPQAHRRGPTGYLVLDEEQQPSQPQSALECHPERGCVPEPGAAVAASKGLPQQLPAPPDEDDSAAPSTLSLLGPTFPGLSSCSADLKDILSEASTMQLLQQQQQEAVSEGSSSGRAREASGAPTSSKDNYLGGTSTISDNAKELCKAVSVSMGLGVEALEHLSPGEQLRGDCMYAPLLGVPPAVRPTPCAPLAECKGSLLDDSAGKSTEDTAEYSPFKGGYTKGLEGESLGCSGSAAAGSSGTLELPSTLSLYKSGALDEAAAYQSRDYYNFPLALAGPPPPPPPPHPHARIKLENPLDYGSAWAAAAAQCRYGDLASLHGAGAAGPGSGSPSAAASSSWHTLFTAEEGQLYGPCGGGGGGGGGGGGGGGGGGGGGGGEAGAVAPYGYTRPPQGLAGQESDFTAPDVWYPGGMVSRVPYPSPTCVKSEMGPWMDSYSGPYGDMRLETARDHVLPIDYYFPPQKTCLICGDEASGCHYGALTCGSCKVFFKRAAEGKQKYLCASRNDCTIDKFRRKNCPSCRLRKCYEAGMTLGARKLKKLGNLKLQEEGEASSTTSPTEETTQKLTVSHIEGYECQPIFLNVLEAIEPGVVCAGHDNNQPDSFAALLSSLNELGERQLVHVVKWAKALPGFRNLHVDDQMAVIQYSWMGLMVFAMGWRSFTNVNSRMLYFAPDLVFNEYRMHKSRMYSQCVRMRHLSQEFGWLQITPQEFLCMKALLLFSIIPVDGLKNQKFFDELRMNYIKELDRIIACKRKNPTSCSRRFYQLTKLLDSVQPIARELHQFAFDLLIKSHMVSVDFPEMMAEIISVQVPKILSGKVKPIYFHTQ

[1] = listed as invention substance, 30 mg/kg
[2] = listed as substance B, 30 mg/kg

Compound	growth inhibition of LNCaP prostate cancers (LNCaP prostate cancers)	Proliferation in the Cell Line MaTu (MaTu cells)	Proliferation in the Cell Line MaTu/Adr (MaTu/Adr cells)	Proliferation in the Cell Line MaTu/Adr (MaTu/Adr cells; listed as bicalutamide)	inhibition at 1 µM (LNCaP cells; Homo sapiens, LNCaP, LNCaP proliferation, 1 μM substance, compared to cell growth in the presence of 0.1 nM R1881) [%]	IC50 (LNCaP cells; Homo sapiens) [nM]	% Inhibition at 1 μM (LNCaP cells; LNCaP proliferation, 1 μM substance, compared to cell growth in the presence of 0.1 nM R1881) [%]	growth inhibition of CWR22 prostate cancers (CWR22 prostate cancers)	Proliferation in the Cell Line A431 (A431 cells)	Proliferation in the Cell Line A431 (A431 cells; listed as bicalutamide)	Proliferation in the Cell Line HaCaT (HaCaT cells)	Proliferation in the Cell Line HaCaT (HaCaT cells; listed as bicalutamide)	% Inhibition of the MSB Growth (seminal vesicles) [%]	remaining activity at 10 µM (androgen receptor) [%]	growth inhibition of LNCaP prostate cancers (LNCaP prostate cancers; [1])	growth inhibition of LNCaP prostate cancers (LNCaP prostate cancers; [2])	growth inhibition of CWR22 prostate cancers (CWR22 prostate cancers; [1])	growth inhibition of CWR22 prostate cancers (CWR22 prostate cancers; [2])	remaining activity at 1 µM (androgen receptor) [%]
CC(O)(CS(=O)(=O)c1ccc(F)cc1)C(=O)Nc1ccc(C#N)c(C(F)(F)F)c1 (centres unmarked) [Bicalutamide, N-[4-cyano-3-(trifluoromethyl)phenyl]-3-[(4-fluorophenyl)sulfonyl]-2-hydroxy-2-methylpropanamide, reference compound]	growth inhibition	97 ± 3%	84 ± 6%	slight inhibition	85	380	84.6	growth inhibition	89 ± 7%	slight inhibition	92 ± 3%	slight inhibition	86						
CC1=C(CCCCN2CCN(C(=O)c3ccccc3Cl)CC2)C(=O)N(c2ccc(C#N)c(C(F)(F)F)c2)C1=O [Example 90, 4-[3-[4-[4-(2-Chlorobenzoyl)piperazin-1-yl]butyl]-2,5-dihydro-4-methyl-2,5-dioxo-1H-pyrrol-1-yl]-2-(trifluoromethyl)benzonitrile]		96 +/− 3%	80 +/− 2%						98 +/− 7%		102 +/− 12%			34					
CC1=C(CCCCN2CCN(S(C)(=O)=O)CC2)C(=O)N(c2ccc(C#N)c(C(F)(F)F)c2)C1=O [Example 117, 4-[2,5-Dihydro-3-methyl-4-[4-[4-(methylsulfonyl)piperazin-1-yl]butyl]-2,5-dioxo-1H-pyrrol-1-yl]-2-(trifluoromethyl)benzonitrile]		103 ± 10%	94 ± 4%						100 ± 5%		104 ± 6%			36	considerable growth inhibition	superior in comparison to treatment with the antiandrogen bicalutamide	considerable growth inhibition	superior in comparison to treatment with the antiandrogen bicalutamide	57
COc1ccccc1C(=O)N1CCN(CCCCCCC2=C(C)C(=O)N(c3ccc(C#N)c(C(F)(F)F)c3)C2=O)CC1 [Example 248, 4-[2,5-Dihydro-3-[6-[4-(2-methoxybenzoyl)piperazin-1-yl]hexyl]-4-methyl-2,5-dioxo-1H-pyrrol-1-yl]-2-(trifluoromethyl)benzonitrile]		98 +/− 4%	88 +/− 4%			250			102 +/− 5%		104 +/− 7%			22					51
CC1=C(CCCCCCN2CCN(C(=O)Nc3ccccc3)CC2)C(=O)N(c2ccc(C#N)c(C(F)(F)F)c2)C1=O [Example 315, 4-[6-[1-[4-Cyano-3-(trifluoromethyl)phenyl]-2,5-dihydro-4-methyl-2,5-dioxo-1H-pyrrol-3-yl]hexyl]-N-phenylpiperazine-1-carboxamide]		95 +/− 7%	90 +/− 10%			380			95 +/− 5%		102 +/− 6%			52					
CCS(=O)(=O)N1CCN(CCCCCN2C(=S)N(c3ccc(C#N)c(C(F)(F)F)c3)C(=O)C2(C)C)CC1 [Example 629, 4-[3-[5-[4-(Ethylsulfonyl)piperazin-1-yl]pentyl]-4,4-dimethyl-5-oxo-2-thioxoimidazolidin-1-yl]-2-(trifluoromethyl)benzonitrile]						140							98						54
